Assay results published in paper PMC6479099, “Aminoguanidines: New leads for treatment of Giardia duodenalis infection” (International Journal for Parasitology: Drugs and Drug …, 2019).
“Also recorded” adds a separate entry of the source.

Experiments:
[1] = test system: G. duodenalis trophozoites; test: Giardia recovery assay; type: cell-based, Giardia duodenalis; settings: 5 h at 5x the IC50, counts at 24 and 48 h post exposure
Method: G. duodenalis trophozoites were harvested on ice as outlined above and 5 × 10^5 cells/mL were added to 1.5 mL centrifuge tubes. […] After exposure cells were collected by placing tubes on ice for 40 min followed by centrifugation at 900×g for 5 min. The supernatant was removed and cells were resuspended in 8 mL of fresh media (in a 9 mL culture tube). The number of trophozoites was counted using a haemocytometer and cells were incubated for 48 h with cell numbers being determined at 24 and 48 h.
Fig. 7 Recovery assay of Giardia duodenalis exposed to robenidine and metronidazole. Giardia trophozoites were exposed to robenidine or metronidazole for 5 h at 5x the IC50. Key: closed circle – growth control, triangle – metronidazole, square – robenidine, open circle – NCL 062, diamond – NCL 099. Cell numbers were determined at 24 and 48 h post exposure. Error ± SD.

Giardia trophozoites = test: Morphology of stained trophozoites at 100x magnification; type: cell-based, Giardia duodenalis; settings: at IC50, 100 x magnification
Method: A second screening method, based on counting adherent trophozoites, was developed and used to validate the primary screen method, modified from earlier adherence assay protocols ([Crouch et al., 1986]). The assay was prepared in 24 well plates with plastic coverslips placed in the bottom. Trophozoites were prepared as above by placing on ice and ∼5 × 10^5 cells/mL were added to each well. Drugs prepared in DMSO were added at the required concentration, with the DMSO concentration never exceeding 1%. Assay plates were incubated for 5 h at 37 °C under anaerobic conditions, the media removed and cells adhering to the coverslips were fixed with glutaraldehyde or methanol. Once the coverslips were dry, cells were stained with a Romanowsky stain variant (Rapid stain), fixed to a glass slide and imaged at 10x or 100x magnification. Images (10x magnification) were processed with DotCount v1.2 software (http://reuter.mit.edu/, 2008–2012 ^© Martin Reuter) to count the number of cells present and data analysed using GraphPad Prism version 6.00 for Windows, GraphPad Software, La Jolla California USA, www.graphpad.com. Images (100x magnification) were assessed for obvious morphological changes.
Fig. 4 Morphological effect of Robenidine and NCL 099 on Giardia trophozoites. Giardia trophozoites were exposed to each compound for 24 h before fixation with glutaraldehyde and staining following the Diff quik protocol. A-control cells, B – cells treated with metronidazole (IC50, 2 μM), C- robendine treated cells (IC50, 2 μM), D – NCL 099 treated cells (IC50, 3 μM), E − NCL 099 treated cells (2 x IC50).

[2] = test system: Giardia BAH2c2 trophozoites; test: Electron microscopy (TEM, SEM) of trophozoites; type: cell-based, Giardia duodenalis
Method: To determine any effects robenidine has on the ultrastructure of Giardia trophozoites, transmission electron microscopy (TEM) was performed. Giardia BAH2c2 trophozoites were exposed to 3 X IC50 of robenidine or metronidazole for 1 h and placed on ice for 40 min to detach trophozoites then washed twice with PBS (900×g, 10 min 4 °C) and fixed with a combination of glutaraldehyde and formaldehyde overnight. Cells were washed with PBS +4% sucrose before fixation with osmium tetroxide for 1 h. Samples were dehydrated through a graded ethanol series (70–100%) followed by suspension in propylene oxide for ten minutes. Samples were centrifuged and suspended in 1:1 mixture of propylene oxide and epoxy resin for an hour before centrifugation. Following overnight suspension in 100% epoxy resin samples were resuspended in fresh resin and polymerized at 70 °C for 24 h. After sectioning samples were stained with uranyl acetate and lead citrate. Sections were imaged with a FEI tecnai G2 Spirit Transmission Electron microscope (Adelaide Microscopy, University of Adelaide).
To determine the effect that robenidine and metronidazole has on the cell surface of the Giardia trophozoites, scanning electron microscopy (SEM) was performed as follows. Giardia BAH2c2 trophozoites were prepared as for TEM, however they were exposed to compounds for 2 or 4 h. […]

[3] = In vitro cytotoxicity, murine macrophage cells; settings: mouse

N=C(N/N=C/c1ccc(Cl)cc1)N/N=C/c1ccc(Cl)cc1 [Robenidine, robenidine]
Recovery of trophozoites after short-term exposure [1]: unable to recover | Morphological effect on stained trophozoites at the IC50 (Giardia trophozoites): decrease in the intensity of the membrane stain; also recorded: enlarged nuclei | Ultrastructural changes by TEM ([2]; 3 x IC50, 1 h exposure): extreme membrane blebbing | Cell surface changes by SEM ([2]; 3 x IC50, 2 h exposure): extreme membrane blebbing | GI50 [3]: 17.1 µM
